PMC8330742, “New benzothieno[2,3-c]pyridines as non-steroidal CYP17 inhibitors: design, synthesis, anticancer screening, apoptosis induction, and in silico ADME profile studies” (Journal of Enzyme Inhibition and Medicinal Chemistry, 2021)

Columns and labels:
SNB-19 = assay: NCI-60 SRB screen; type: cell-based; details: SNB-19, five dose;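 on IC50: half-maximal inhibitory concentration read as cell viability unlike GI50 net growth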
LOX IMVI = assay: NCI-60 SRB screen; type: cell-based, human;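 on IC50: half-maximal inhibitory concentration read as cell viability unlike GI50 net growth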
DU-145 = assay: NCI-60 SRB screen; type: cell-based, human; details: DU-145;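 on IC50: half-maximal inhibitory concentration read as cell viability unlike GI50 net growth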
SNB-75 = assay: NCI-60 SRB screen; type: cell-based, human; details: SNB-75, five dose;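 on IC50: half-maximal inhibitory concentration read as cell viability unlike GI50 net growth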
MDA-MB-231/ATCC = assay: NCI-60 SRB screen; type: cell-based, human
PC-3 cells = assay: Cell cycle analysis (propidium iodide, flow cytometer); type: cell-based, human; details: PC-3, 2.34 µM, 24 h
Procedure: The prostate PC-3 cells were placed in a six-well plate at 1 × 10^5 conc. of cells/well, then incubated for 24 h. The cells were treated with 2.34 µM of compound 5c or (0.1% DMSO) for 24 h. Thereafter, cells were collected and fixed for 12 h using ice-cold 70% ethanol at 4 °C. Then, ethanol was removed, and the cells were washed with cold Phosphate Buffer Saline (PBS) and incubated for 30 min at 37 °C in 0.5 ml of PBS. The cells were stained for 30 min with propidium iodide in the dark. The flow cytometer was used to detect DNA contents.

RPMI-8226 = assay: NCI-60 SRB screen; type: cell-based; details: RPMI-8226
SF-539 = assay: NCI-60 SRB screen; type: cell-based, human; details: SF-539, five dose
[1] = system: prostate cancer cell line (PC-3); assay: MTT cytotoxicity assay; type: cell-based, human
Procedure: (§1) The MTT method for monitoring in vitro cytotoxicity was used with multiwell plates. Three human cell lines, namely prostate cancer cell line (PC-3), renal cancer cell line (UO-31), and breast cancer cell line (MCF-7) were obtained from the American Type Culture Collection ATCC, Manassas, VA, USA). The cells were trypsinized and seeded in 96 well plates with a density of 1.2 − 1.8 × 10,000 cells/well for 24 h at 37 °C. After treating the cells with five concentrations of compound 5c (0.01, 0.1, 1, 10, 100 µM), an MTT solution (Sigma Co., St. Louis, MO, USA) (5 mg/mL in phosphate buffer solution) was applied to each well and […]. The plates were cultivated in 5% CO2 for 4 h at 37 °C. Successively, the remaining formazan crystals were dissolved in 100 µl of DMSO, and the absorbance was determined with the ROBONIK P2000 spectrophotometer at a wavelength of 570 nm. The obtained values were analysed using Gen5 software (BioTek, UK). The proliferation percentage in each treated cell line was standardised based on their control wells. Both tests have been conducted in triplicate. The IC50 values were calculated using sigmoidal dose-response curve fitting models. […] Each test included a blank containing a complete medium without cells.

[2] = system: renal cancer cell line (UO-31); assay: MTT cytotoxicity assay; type: cell-based, human
Procedure: as §1

[3] = system: breast cancer cell line (MCF-7); assay: MTT cytotoxicity assay; type: cell-based, human
Procedure: as §1

MCF7 = assay: NCI-60 SRB screen; type: cell-based, human
HCC-2998 = assay: NCI-60 SRB screen; type: cell-based, human; details: HCC-2998
HS 578 T = assay: NCI-60 SRB screen; type: cell-based, human; details: five dose
MDA-MB-468 = assay: NCI-60 SRB screen; type: cell-based, human; details: MDA-MB-468
BT-549 = assay: NCI-60 SRB screen; type: cell-based, human; details: BT-549
WI-38 human cell line = assay: In vitro cytotoxicity on WI-38 human cell line (MTT); type: cell-based; details: WI-38 normal human cell line
Procedure: Cell Line cells were obtained from American Type Culture Collection and were cultured using DMEM (Invitrogen/Life Technologies) supplemented with 10% FBS (Hyclone), 10 µg/ml of insulin (Sigma), and 1% penicillin-streptomycin. All of the other chemicals and reagents were obtained from Sigma or Invitrogen. Plate cells were incubated (cells density 1.2–1.8 × 10,000 cells/well) in a volume of 100 µL complete growth medium and 100 ul of the tested compound per well in a 96-well plate for 24 h before the MTT assay. The cultures were removed from the incubator into a laminar flow hood or other sterile work area followed by the addition of reconstituted MTT in an amount equal to 10% of the culture medium volume, then incubated for an additional 2 h. After the incubation period, cultures were removed from the incubator, and the resulted formazan crystals were dissolved by adding an amount of MTT solubilisation solution [M-8910] equal to the original culture medium volume, then the absorbance at a wavelength of 570 nm was measured. Finally, the IC50 of the tested compound compared to the reference was calculated using GraphPad Prism software.

U251 = assay: NCI-60 SRB screen; type: cell-based, human; details: U251, five dose
A498 = assay: NCI-60 SRB screen; type: cell-based, human; details: A498
PC-3 = assay: NCI-60 SRB screen; type: cell-based, human; details: PC-3
T-47D = assay: NCI-60 SRB screen; type: cell-based, human
OVCAR-5 = assay: NCI-60 SRB screen; type: cell-based, human; details: OVCAR-5
[4] = Homo sapiens, single dose 10^−5 M, read-out: Growth inhibition (%)
[5] = Homo sapiens, MDA-MB-231/ATCC, five dose

Work on `N#CC1C(=O)NC(c2ccccc2[N+](=O)[O-])c2sc3c(F)cccc3c21` (stereo not drawn) [Compound 5c, 4-Cyano-8-fluoro-1-(2-nitrophenyl)-1,2-dihydro[1]benzothieno[2,3-c] pyridin-3(4H)-one] yielded a GI50 (SNB-19; Homo sapiens) of 24.6 µM, an IC50 (SNB-19; Homo sapiens) of 44.7 µM and an LC50 (SNB-19; Homo sapiens) of over 100 µM. For the same compound, the TGI (SNB-19) was 100 µM, the GI50 (LOX IMVI; Homo sapiens, five dose) was 15.3 µM and the IC50 (LOX IMVI; Homo sapiens, five dose) was 25.1 µM. For the same compound, the inhibition at 10 µM (LOX IMVI; [4]) was 8.64%, the TGI (LOX IMVI; five dose) was 73.20 µM and the TGI (DU-145; five dose) was 100 µM. The GI50 (DU-145; Homo sapiens, five dose) was 10.5 µM, the IC50 (DU-145; Homo sapiens, five dose) was 19.1 µM and the inhibition at 10 µM (DU-145; [4]) was 10.1%. For the same compound, the GI50 (SNB-75; Homo sapiens) was 6.12 µM, the IC50 (SNB-75; Homo sapiens) was over 100 µM and the TGI (SNB-75) was 100 µM. The inhibition at 10 µM (MDA-MB-231/ATCC; Homo sapiens, MDA-MB-231, MDAMB231/ATCC, single dose 10^−5 M, read-out: Growth inhibition (%)) was 24.5%, the GI50 (MDA-MB-231/ATCC; [5]) was 11.6 µM and the IC50 (MDA-MB-231/ATCC; [5]) was 33.1 µM. For the same compound, the TGI (MDA-MB-231/ATCC; MDA-MB-231/ATCC, five dose) was 100 µM, the “DNA content (%) G0-G1” value (PC-3 cells) was 49.61% and the “DNA content (%) G2/M” value (PC-3 cells) was 6.21%. The “DNA content (%) Pre-G1” value (PC-3 cells) was 42.55%, the “DNA content (%) S” value (PC-3 cells) was 44.18% and the GI50 (RPMI-8226; Homo sapiens, five dose) was 10.6 µM. For the same compound, the IC50 (RPMI-8226; Homo sapiens, five dose) was 34.7 µM, the LC50 (RPMI-8226; Homo sapiens, five dose) was over 100 µM and the inhibition at 10 µM (RPMI-8226; [4]) was 58.8%. For the same compound, the TGI (RPMI-8226; five dose) was 100 µM, the GI50 (SF-539; Homo sapiens) was 23 µM and the IC50 (SF-539; Homo sapiens) was 46.8 µM. For the same compound, the TGI (SF-539) was 100 µM, the “potency compared to staurosporine” value [1] was “higher potency” and the “potency relative to abiraterone” value [1] was “fourfold”. The IC50 ([1]; Homo sapiens) was 2.08 µM, the “potency compared to staurosporine” value [2] was “higher potency” and the “potency compared to staurosporine” value [3] was “half potency”. The inhibition at 10 µM (MCF7; Homo sapiens, MCF-7, single dose 10^−5 M, read-out: Growth inhibition (%)) was 76.4%, the GI50 (MCF7; Homo sapiens, five dose) was 0.26 µM and the IC50 (MCF7; Homo sapiens, five dose) was 0.55 µM. For the same compound, the TGI (MCF7; five dose) was 10.00 µM, the TGI (HCC-2998; five dose) was 94.90 µM and the GI50 (HCC-2998; Homo sapiens, five dose) was 17.4 µM. The IC50 (HCC-2998; Homo sapiens, five dose) was 33.9 µM, the inhibition at 10 µM (HCC-2998; [4]) was 6.16% and the GI50 (HS 578 T; Homo sapiens) was 18.1 µM. It also gave an IC50 (HS 578 T; Homo sapiens) of over 100 µM, a TGI (HS 578 T) of 100 µM and a GI50 (MDA-MB-468; Homo sapiens, five dose) of 0.15 µM. The IC50 (MDA-MB-468; Homo sapiens, five dose) was 0.24 µM, the inhibition at 10 µM (MDA-MB-468; [4]) was 149% and the TGI (MDA-MB-468; five dose) was 0.65 µM. It also gave a TGI (BT-549; five dose) of 100 µM, a GI50 (BT-549; Homo sapiens, five dose) of 16.5 µM and an IC50 (BT-549; Homo sapiens, five dose) of 72.4 µM. For the same compound, the inhibition at 10 µM (BT-549; [4]) was 10.8%, the IC50 (WI-38 human cell line) was 34.1 µM and the GI50 (U251; Homo sapiens, U-251) was 2.5 µM. The IC50 (U251; Homo sapiens, U-251) was 12.6 µM, the TGI (U251) was 100 µM and the TGI (A498; five dose) was 5.98 µM. It also gave a GI50 (A498; Homo sapiens, five dose) of 1.32 µM, an IC50 (A498; Homo sapiens, five dose) of 3.09 µM and an inhibition at 10 µM (A498; [4]) of 161%. For the same compound, the GI50 (PC-3; Homo sapiens, five dose) was 13.6 µM, the IC50 (PC-3; Homo sapiens, five dose) was 25.1 µM and the inhibition at 10 µM (PC-3; [4]) was 20%. For the same compound, the TGI (PC-3; five dose) was 100 µM, the GI50 (T-47D; Homo sapiens, T47D, five dose) was 0.32 µM and the IC50 (T-47D; Homo sapiens, T47D, five dose) was over 100 µM. For the same compound, the inhibition at 10 µM (T-47D; Homo sapiens, T47D, single dose 10^−5 M, read-out: Growth inhibition (%)) was 97.5%, the TGI (T-47D; five dose) was 100 µM and the GI50 (OVCAR-5; Homo sapiens, five dose) was 0.73 µM. For the same compound, the IC50 (OVCAR-5; Homo sapiens, five dose) was 3.39 µM, the inhibition at 10 µM (OVCAR-5; [4]) was 115% and the TGI (OVCAR-5; five dose) was 100 µM.
